Measurements taken from PMC6132687, “Stem cells are the most sensitive screening tool to identify toxicity of GATA4-targeted novel small-molecule compounds” (Archives of Toxicology, 2018).

Experiments:
[1] = tested on: stem cell and progenitor cell viability; test: Toxicity classification from MTT screening across cell types; conditions: based on effects on stem cell and progenitor cell viability
Protocol: The cells were exposed to the test compounds for 24 h and cytotoxicity was quantified with MTT and LDH assays as described previously (Talman et al. [2011]). For the determination of cell membrane integrity, 50 µl of medium from each well was transferred onto a new 96-well plate followed by addition of 50 µl of substrate solution containing 1.3 mM β-nicotinamide adenine dinucleotide, 660 µM iodonitrotetrazolium, 54 mM L(+)-lactic acid, 280 µM phenazine methosulphate and 0.2 M Tris–HCl (pH 8.0). After a 30-min incubation, the reaction was stopped by adding 50 µl of 1 M acetic acid to each well and absorbance was measured at 490 nm using Victor2 plate reader (PerkinElmer, Turku, Finland). Spontaneous LDH release was measured from untreated cells, maximal LDH release from cells lysed with 0.9% Triton X-100 and background absorbance was measured from wells without cells. After background extraction, cytotoxicity was calculated as follows: cytotoxicity (%) = [(sample − spontaneous LDH release)/(maximal LDH release − spontaneous LDH release)] × 100. For quantification of metabolic activity, 3-(4,5-dimethylthiazol-2-yl)-2,5-diphenyltetrazolium bromide (MTT) was added to the cells at a final concentration of 0.5 mg/ml followed by 2 h incubation in cell culture conditions. The medium was then aspirated and formazan crystals were solubilized in DMSO. Absorbance was measured at 550 nm and absorbance at 650 nm was subtracted as background.
When comparing the effects of different compounds within each individual cell type, the compounds can be grouped into two main classes: toxic (3i-1000, 3i-1120, 3i-1148 and 3i-1229) and non-toxic (3i-1047, 3i-1051, 3i-1165, and 3i-1228) compounds. Based on the hiPSC toxicity data, 3i-1148 can be considered as the most toxic compound with an IC50 of 0.30 µM (Fig. 5b).

hiPSCs [2] = test: High-content analysis of proliferation (Ki67, BrdU, DNA) in hiPSCs; type: cell-based, human; conditions: 24 h
Protocol: (§1) For proliferation studies, the cells were exposed to the test compounds for 24 h and 10 µM BrdU was added to the culture medium for the last 1 h (hiPSCs) or 24 h (hiPSC-CMs) before fixation with 4% paraformaldehyde (PFA) for 15 min at room temperature (rt). The cells were then permeabilized with 0.1% Triton X-100 for 10 min and DNA was hydrolysed with 2 M hydrochloric acid for 30 min at rt followed by neutralization with 0.1 M sodium borate (pH 8.5) for 30 min. Non-specific binding sites were blocked with 4% FBS in phosphate-buffered saline (PBS) for 45 min at rt, whereafter the cells were incubated with anti-Ki67 (1:250) and anti-BrdU (1:250) antibodies for 60 min at rt. Cells were then washed 3 × 5 min with PBS and incubated with Alexa Fluor-conjugated secondary antibodies (1:200) and DAPI (5 µg/ml) for 45 min at rt. In hiPSC-CM cultures, staining with primary antibody against α-actinin (at 1:600) was additionally used to identify myocytes. The plates were imaged and analysed with CellInsight CX5 High Content Screening Platform (Thermo Scientific) using a 10× objective (Olympus UPlanFL N 10×/0.3). For quantification, the cells were first identified based on DAPI fluorescence, which defined the nuclear area for quantifications. In hiPSC-CM cultures, non-myocytes were excluded based on absence of α-actinin staining and nuclear area. The thresholds for α-actinin fluorescence intensity and nuclear area were set manually in each experiment to allow optimal exclusion of non-myocytes. In hiPSC-CMs cultures, the data were collected only from α-actinin positive cells. The thresholds for Ki67+ and BrdU+ cells were also set manually in each experiment as described previously (Mioulane et al. [2012]) to adjust for slight variation in staining intensity.

hiPSC-CMs = test: High-content analysis of proliferation (Ki67, BrdU, DNA) in hiPSC-CMs; type: cell-based, human; conditions: 24 h; for average intensity of nuclear Ki67 staining / increase in the percentage of Ki67+ cells compared to DMSO: 30 µM
Protocol: as §1

hiPSCs [3] = test: High-content analysis of cell viability (MitoTracker) in hiPSCs; type: cell-based, human; conditions: 24 h
Protocol: To study mitochondrial function using high-content analysis, the cells were plated and treated as in proliferation studies, except that MitoTracker Orange CMTMRos solution (400 nM) was added to the cells for the last 30 min at 37 °C. The accumulation of the MitoTracker probe used is dependent upon mitochondrial membrane potential allowing selective staining of active mitochondria. Following fixation and permeabilization, hiPSC-CMs were in addition stained with anti-α-actinin (Alexa Fluor 488) and DAPI. Cells were identified and hiPSC-CMs discriminated from non-myocytes as described above. MitoTracker intensity corresponding to active mitochondria was analysed in the perinuclear area defined by a 3-pixel ring or a 5-pixel ring around the nucleus in hiPSCs and hiPSC-CMs, respectively. The fluorescence intensity threshold was set manually in each experiment based on the assumption that 2% of control hiPSC-CMs and 5% of control hiPSCs were MitoTracker negative.

[4] = tested on: caspase-3/7 activity in hiPSCs; test: High-content analysis of caspase-3/7 activation in hiPSCs; type: cell-based, human; conditions: 4-h exposure
Protocol: To study caspase activation, the cells were exposed to the test compounds for 4 h and then incubated with 3–5 µM CellEvent™ Caspase-3/7 Green Detection Reagent solution in PBS with 5% FBS for 50 min and stained with Hoechst for 10 min at 37 °C. Cells were fixed with 4% PFA and scanned with CellInsight using the 10× objective, or alternatively, the staining solution was replaced with fresh 5% FBS in PBS followed by live cell imaging with CellInsight. Hoechst fluorescence was used to identify the cells and define the nuclear area. The intensity of green fluorescence within the nucleus was quantified as a measure of caspase 3/7 activity.

CCN(CC)c1ccc(NC(=O)c2c(-c3ccccc3)noc2C)cc1 [3i-1000]
toxicity class (toxic / non-toxic) [1]: toxic | proportion of BrdU-positive cells (hiPSCs [2]; 1 µM): not at 1 µM | proportion of Ki67 positive cells (hiPSCs [2]; 1 µM): not at 1 µM | proportion of BrdU-positive cells (hiPSCs [2]; 10 µM): decreased | proportion of Ki67 positive cells (hiPSCs [2]; 10 µM): decreased | average intensity of nuclear BrdU staining (hiPSCs [2]): decreased average intensity | average intensity of nuclear Ki67 staining (hiPSCs [2]): decreased average intensity | cell numbers (hiPSCs [2]): significantly reduced | decrease in the average total intensity of DNA staining (hiPSCs [2]): 66% | decrease in cells with high total DNA staining intensity (G2 phase) (hiPSCs [2]; P = 0.062): 77% | decrease in BrdU+ hiPSC-CMs as compared to DMSO (hiPSC-CMs; P = 0.233): 43% | average intensity of nuclear Ki67 staining (hiPSC-CMs; hiPSC-CMs): substantial increases | increase in the percentage of Ki67+ cells compared to DMSO (hiPSC-CMs; hiPSC-CMs): 1.7 fold | average intensity of nuclear BrdU staining (hiPSC-CMs; hiPSC-CMs): tendency for 3i-1000 to induce a decrease | average total intensity of DNA staining (hiPSC-CMs; hiPSC-CMs): neither 3i-1000 nor 3i-1047 caused significant changes | percentage of cells with high total intensity of DNA staining (hiPSC-CMs; hiPSC-CMs): neither 3i-1000 nor 3i-1047 caused significant changes | average MitoTracker intensity in the perinuclear area (hiPSCs [3]; 10 µM): reduced substantially | increase in the percentage of MitoTracker negative cells as compared to DMSO (hiPSCs [3]; 10 µM): 5.7 fold | reduction of hiPSC cell numbers (hiPSCs [3]; 10 µM): 98% | increase in cells positive for the fluorescent caspase reporter ([4]; vs DMSO): 3.2 fold

CCN(CC)c1ccc(NC(=O)c2c(C)noc2-c2cc(C)on2)cc1 [3i-1047]
toxicity class (toxic / non-toxic) [1]: non-toxic | corresponding average staining intensities (Ki67, BrdU, DNA) (hiPSCs [2]; 1 or 10 µM): no effect | percentage of BrdU+ cells (hiPSCs [2]; 1 or 10 µM): no effect | percentage of Ki67+ cells (hiPSCs [2]; 1 or 10 µM): no effect | percentage of high DNA cells (hiPSCs [2]; 1 or 10 µM): no effect | average intensity of nuclear Ki67 staining (hiPSC-CMs; hiPSC-CMs): substantial increases | increase in the percentage of Ki67+ cells compared to DMSO (hiPSC-CMs; hiPSC-CMs): 1.5 fold | average intensity of nuclear BrdU staining (hiPSC-CMs; hiPSC-CMs): no effect | average total intensity of DNA staining (hiPSC-CMs; hiPSC-CMs): neither 3i-1000 nor 3i-1047 caused significant changes | percentage of BrdU+ cells (hiPSC-CMs; hiPSC-CMs): no effect | percentage of cells with high total intensity of DNA staining (hiPSC-CMs; hiPSC-CMs): neither 3i-1000 nor 3i-1047 caused significant changes | effect on MitoTracker staining (hiPSCs [3]): did not affect MitoTracker staining | effect on caspase-3/7 activity [4]: no effect

CCC(=O)N(Cc1ccc(N(CC)CC)cc1)c1c(-c2ccccc2)noc1C [3i-1120]
toxicity class (toxic / non-toxic) [1]: toxic

CCN(CC)c1ccc(NC(=O)c2cc(C)oc2-c2ccccc2)cc1 [3i-1148]
toxicity class (toxic / non-toxic) [1]: toxic

COc1ccc(-c2cc(N)nn2C(=O)c2c(-c3ccccc3)noc2C)cc1 [3i-1229]
toxicity class (toxic / non-toxic) [1]: toxic
